# Tested on: human hepatoma Huh-7 cell line harboring a HCV replicon
# Experiment: HCV replicon assay (inhibition of viral replication, luciferase readout)
# Type: cell-based
# Conditions: Hepatitis C virus, 72 h, Huh-7 HCV replicon cells, 3 days incubation
# In short: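 Read-outs: luciferase luminescence for replication inhibition, corrected by ITMN-191 (100% inhibition) wells, and calcein AM fluorescence for cytotoxicity. Cells were treated for 3 days at 37 °C with ten 3-fold compound dilutions in 0.44% final DMSO. Percent inhibition relative to DMSO was fitted with a Hill equation to give EC50 and CC50.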
row,Structure (SMILES),inhibition at 2 µM [%]
1,"CN(C)Cc1ccnc(O[C@H]2CC[C@@H](N(c3cc(C#CC(C)(C)C)sc3C(=O)O)C(=O)[C@H]3CC[C@H](C)CC3)CC2)c1 [Compound 175, Sodium 3-(N-(4-(4-((dimethylamino)methyl)pyridin-2-yloxy)cyclohexyl)-4-methylcyclohexanecarboxamido)-5-(3,3-dimethylbut-1-ynyl)thiophene-2-carboxylate]",100
2,"CC(C)(C)C#Cc1cc(N(C(=O)[C@H]2CC[C@H](C)CC2)[C@H]2CC[C@H](Oc3ccc4nccn4n3)CC2)c(C(=O)O)s1 [Compound 176, Sodium 5-(3,3-dimethylbut-1-ynyl)-3-(N-(4-(imidazo[1,2-b]pyridazin-6-yloxy)cyclohexyl)-4-methylcyclohexanecarboxamido)thiophene-2-carboxylate]",99.8
3,"CC(C)(C)C#Cc1cc(N(C(=O)[C@H]2CC[C@H](C)CC2)[C@H]2CC[C@@H](Oc3ccc(Cl)nn3)CC2)c(C(=O)O)s1 [Compound 177, 3-(N-(4-(6-Chloropyridazin-3-yloxy)cyclohexyl)-4-methylcyclohexanecarboxamido)-5-(3,3-dimethylbut-1-ynyl)thiophene-2-carboxylic acid]",99.6
4,"CC(C)(C)C#Cc1cc(N(C(=O)[C@H]2CC[C@H](C)CC2)[C@H]2CC[C@@H](Oc3ccc(O)nn3)CC2)c(C(=O)O)s1 [Compound 178, 5-(3,3-Dimethylbut-1-ynyl)-3-(N-(4-(6-hydroxypyridazin-3-yloxy)cyclohexyl)-4-methylcyclohexanecarboxamido)thiophene-2-carboxylic acid]",100
5,"CC(C)(C)C#Cc1cc(N(C(=O)[C@H]2CC[C@H](C)CC2)[C@H]2CC[C@@H](Oc3cncnc3)CC2)c(C(=O)O)s1 [Compound 179, 5-(3,3-Dimethylbut-1-ynyl)-3-(4-methyl-N-(4-(pyrimidin-5-yloxy)cyclohexyl)cyclohexanecarboxamido)thiophene-2-carboxylic acid]",99.5
6,"CC(C)(C)C#Cc1cc(N(C(=O)[C@H]2CC[C@H](C)CC2)[C@H]2CC[C@@H](Oc3cccnc3)CC2)c(C(=O)O)s1 [Compound 180, 5-(3,3-Dimethylbut-1-ynyl)-3-(4-methyl-N-(4-(pyridin-3-yloxy)cyclohexyl)cyclohexanecarboxamido)thiophene-2-carboxylic acid]",99.6
7,"CC(C)(C)C#Cc1cc(N(C(=O)[C@H]2CC[C@H](C)CC2)[C@H]2CC[C@@H](Oc3ncccn3)CC2)c(C(=O)O)s1 [Compound 181, 5-(3,3-Dimethylbut-1-ynyl)-3-(4-methyl-N-(4-(pyrimidin-2-yloxy)cyclohexyl)cyclohexanecarboxamido)thiophene-2-carboxylic acid]",98.3
8,"CC(C)(C)C#Cc1cc(N(C(=O)[C@H]2CC[C@H](C)CC2)[C@H]2CC[C@@H](Oc3cnc(Cl)cn3)CC2)c(C(=O)O)s1 [Compound 182, 3-(N-(4-(5-Chloropyrazin-2-yloxy)cyclohexyl)-4-methylcyclohexanecarboxamido)-5-(3,3-dimethylbut-1-ynyl)thiophene-2-carboxylic acid]",99
9,"CC(C)(C)C#Cc1cc(N(C(=O)[C@H]2CC[C@H](C)CC2)[C@H]2CC[C@@H](Oc3ccnnc3)CC2)c(C(=O)O)s1 [Compound 183, 5-(3,3-Dimethylbut-1-ynyl)-3-(4-methyl-N-(4-(pyridazin-4-yloxy)cyclohexyl)cyclohexanecarboxamido)thiophene-2-carboxylic acid]",100
10,"CC(C)(C)C#Cc1cc(N(C(=O)[C@H]2CC[C@H](C)CC2)[C@H]2CC[C@H](Oc3cnc(Cl)cn3)CC2)c(C(=O)O)s1 [Compound 184, 3-(N-(4-(5-Chloropyrazin-2-yloxy)cyclohexyl)-4-methylcyclohexanecarboxamido)-5-(3,3-dimethylbut-1-ynyl)thiophene-2-carboxylic acid]",97.8
11,"CC(C)(C)C#Cc1cc(N(C(=O)[C@H]2CC[C@H](C)CC2)[C@H]2CC[C@H](Oc3ccnnc3)CC2)c(C(=O)O)s1 [Compound 185, 5-(3,3-Dimethylbut-1-ynyl)-3-(4-methyl-N-(4-(pyridazin-4-yloxy)cyclohexyl)cyclohexanecarboxamido)thiophene-2-carboxylic acid]",84.7
12,"CC1CCC(C(=O)N(c2cc(C#CC(C)(C)C)sc2C(=O)O)C2CCC(Oc3cccc(CN4CCCC4)n3)CC2)CC1 (stereo not drawn) [Compound 187, 3-[[-4-(6-pyrrolidin-1-ylmethyl-pyridin-2-yloxy)-cyclohexyl]-(4-methyl-cyclohexanecarbonyl)-amino]-5-(3,3-Dimethyl-but-1-ynyl)-thiophene-2-carboxylic acid]",100
13,"CC1CCC(C(=O)N(c2cc(C#CC(C)(C)C)sc2C(=O)O)[C@H]2CC[C@H](Oc3cccc(CN4CCOCC4)n3)CC2)CC1 (stereo partly drawn) [Compound 188, 3-[[-4-(6-morpholin-1-ylmethyl-pyridin-2-yloxy)-cyclohexyl]-(4-methyl-cyclohexanecarbonyl)-amino]-5-(3,3-Dimethyl-but-1-ynyl)-thiophene-2-carboxylic acid]",100
14,"CC1CCC(C(=O)N(c2cc(C#CC(C)(C)C)sc2C(=O)O)[C@H]2CC[C@H](Oc3cc(CN4CCCC4=O)ccn3)CC2)CC1 (stereo partly drawn) [Compound 189, 3-[[-4-(4-pyrrolidin-2-one-1-ylmethyl-pyridin-2-yloxy)-cyclohexyl]-(4-methyl-cyclohexanecarbonyl)-amino]-5-(3,3-Dimethyl-but-1-ynyl)-thiophene-2-carboxylic acid]",99.9
15,"CC1CCC(C(=O)N(c2cc(C#CC(C)(C)C)sc2C(=O)O)[C@H]2CC[C@H](Oc3cc(CN4CCC(O)C4)ccn3)CC2)CC1 (stereo partly drawn) [Compound 190, 3-[[-4-[4-(3-hydroxy-pyrrolidin-1-ylmethyl)-pyridin-2-yloxy]-cyclohexyl]-(4-methyl-cyclohexanecarbonyl)-amino]-5-(3,3-Dimethyl-but-1-ynyl)-thiophene-2-carboxylic acid]",100
16,"CC1CCC(C(=O)N(c2cc(C#CC(C)(C)C)sc2C(=O)O)[C@H]2CC[C@H](Oc3cc(CN(C)CCO)ccn3)CC2)CC1 (stereo partly drawn) [Compound 191, 3-[[-4-[4-{[(2-hydroxy-ethyl)-methyl-amino]-1-ylmethyl}-pyridin-2-yloxy]-cyclohexyl]-(4-methyl-cyclohexanecarbonyl)-amino]-5-(3,3-Dimethyl-but-1-ynyl)-thiophene-2-carboxylic acid]",100
17,"CC1CCC(C(=O)N(c2cc(C#CC(C)(C)C)sc2C(=O)O)[C@H]2CC[C@H](Oc3cncc(CN(C)C)c3)CC2)CC1 (stereo partly drawn) [Compound 192, 3-[[-4-(5-dimethylaminomethyl-pyridin-3-yloxy)-cyclohexyl]-(4-methyl-cyclohexanecarbonyl)-amino]-5-(3,3-dimethyl-but-1-ynyl)-thiophene-2-carboxylic acid]",100
18,"CC1CCC(C(=O)N(c2cc(C#CC(C)(C)C)sc2C(=O)O)[C@H]2CC[C@H](Oc3cncc(CN4CCCC4)c3)CC2)CC1 (stereo partly drawn) [Compound 193, 3-[[-4-(5-pyrrolidin-1-ylmethyl-pyridin-3-yloxy)-cyclohexyl]-(4-methyl-cyclohexanecarbonyl)-amino]-5-(3,3-dimethyl-but-1-ynyl)-thiophene-2-carboxylic acid]",100
